This is an account of results in patent publication US9228209B2, “Method for producing triptolide” (priority 2009, dated 2016).

For experiment [1], the system named is transcription factor NFκB. Put plainly: Test of NFκB inhibition (TNFα stimulation in HaCaT keratinocyte cells). It counts as cell-based, human. The text has this:
Transcription factor NFκB controls the expression of a large number of genes involved in inflammatory response regulation. Certain proinflammatory stimuli, such as tumor necrosis factor-α (TNFα), lead to NFκB activation, i.e., to its nuclear translocation. Consequently, NFκB will induce the transcription of proinflammatory genes coding for cytokines, chemokines, adhesion molecules, growth factors and inducible enzymes such as cyclooxygenase-2 (COX-2) and nitric oxide synthase (iNOS). NFκB plays a key role in the initiation and amplification of the inflammatory response. Certain chronic inflammatory diseases of the skin, such as atopic dermatitis or psoriasis, are characterized by deregulation of the expression of inflammation mediators expressed by keratinocytes. The anti-inflammatory activity of pure triptolide (TRP) in relation to that of plant cell culture extracts (IBO.18.134) with equivalent amounts of TRP is evaluated.
FIG. 6 represents the inhibition of various extracts on NFκB activation following TNFα stimulation in HaCaT keratinocyte cells. As a positive control, dexamethasone (2 μM), which inhibits NFκB activation by 36%, was used.

For experiment [2], the system named is RAW264.7 cells. Put plainly: NO2− production by RAW264.7 cells stimulated with LPS (Griess reagent). The settings on record: identical TRP concentrations; 1 μg/ml LPS, 24 hours. It counts as cell-based, murine. Here is the method: To this end, the test selected was NO2^− production by RAW264.7 cells stimulated with lipopolysaccharides (LPS).
Briefly, RAW264.7 cells (murine macrophages) were seeded at 1.4·10^5 cells/cm^2. After 24 hours, the cells were incubated for 1 hour with various concentrations of the products to be tested and then stimulated for 24 hours with 1 μg/ml of LPS. NO2 concentration was estimated in the culture supernatants using the Griess reagent.
The results (FIG. 7) illustrate NO2^− production obtained under the various conditions specified above. The percent inhibition calculated in relation to the LPS control appears in each histogram. Lastly, IC50 was calculated from these values (in bold blue).
A general note: Nitrite, measured by Griess reagent, commonly stands in for NO production.

Take `C[C@@H]1C[C@H]2[C@@H]3CCC4=CC(=O)C=C[C@]4(C)[C@@]3(F)[C@@H](O)C[C@]2(C)[C@@]1(O)C(=O)CO` [dexamethasone]: the inhibition at 2 µM in experiment [1] (Homo sapiens, HaCaT, read-out: inhibition of NFκB activation) was 36%.

For the molecule `CC(C)[C@]12O[C@H]1[C@@H]1O[C@]13[C@]1(O[C@H]1C[C@H]1C4=C(CC[C@@]13C)C(=O)OC4)[C@@H]2O` [triptolide, Triptolide], the “inhibition of NFκB activation” value in experiment [1] (from 8 nM to 83 nM, TNFα stimulation, HaCaT keratinocyte cells) is recorded as “inhibits in a dose-dependent manner”. The “NFκB inhibition, PCC extract compared with pure triptolide” value in experiment [1] (identical triptolide concentrations of 8 nM, 28 nM and 83 nM) is given as “equivalent”. For the same molecule, the “inhibition of nitrite production induced by LPS” value in experiment [2] is “inhibit nitrite production”.

By inhibition is commonly meant the drop in the measured response relative to a control, in per cent.
